In ChEMBL document CHEMBL1201862, “PubChem BioAssay data set” (2004):
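A five-concentration, 48-hour dose response in 96-well plates underlies each endpoint, interpolated linearly between surrounding concentrations. GI50: concentration for 50% inhibition of growth.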 Active and inactive are the calls of the source. Rule as the data show it: active = GI50 up to about 1.1 µM and inactive = higher.

Legend:
Assay in all cases: growth of human tumour cells (NCI), 48 h
786-0 = system: 786-0
ACHN = system: ACHN
CAKI-1 = system: CAKI-1
DU-145 = system: DU-145
EKVX = system: EKVX
HCT-15 = system: HCT-15
HL-60 = system: HL-60
Hs-578T = system: Hs-578T
K562 = system: K562
KM12 = system: KM12
MDA-MB-435 = system: MDA-MB-435
MDA-N = system: MDA-N
MOLT-4 = system: MOLT-4
NCI/ADR-RES = system: NCI/ADR-RES
OVCAR-8 = system: OVCAR-8
SK-MEL-2 = system: SK-MEL-2
TK-10 = system: TK-10
UACC-257 = system: UACC-257
UO-31 = system: UO-31
SK-MEL-28 = system: SK-MEL-28

SMILES | GI50 (786-0) | GI50 (ACHN) | GI50 (CAKI-1) | GI50 (DU-145) | GI50 (EKVX) | GI50 (HCT-15) | GI50 (HL-60) | GI50 (Hs-578T) | GI50 (K562) | GI50 (KM12) | GI50 (MDA-MB-435) | GI50 (MDA-N) | GI50 (MOLT-4) | GI50 (NCI/ADR-RES) | GI50 (OVCAR-8) | GI50 (SK-MEL-2) | GI50 (TK-10) | GI50 (UACC-257) | GI50 (UO-31) | GI50 (SK-MEL-28)
O=c1ccc2nc3ccc(O)cc3oc-2c1 | 13.4 µM (inactive) | 8.11 µM (inactive) | > 67.9 µM (inactive) | 21 µM (inactive) | > 100 µM (inactive) | 13.5 µM | 10.5 µM (inactive) | 6.92 µM (inactive) | 6.1 µM (inactive) | 5.6 µM (inactive) | 1.83 µM (inactive) | 1.91 µM (inactive) | 34 µM (inactive) | 19.5 µM (inactive) | 16.4 µM (inactive) | 12.8 µM (inactive) | > 72.1 µM (inactive) | 8.69 µM (inactive) | 5.75 µM (inactive) | –
CCCCN(c1ccccc1)c1ncnc2c1cnn2C | 53.3 µM (inactive) | 37.7 µM (inactive) | 45.1 µM (inactive) | 53.6 µM (inactive) | 31.8 µM (inactive) | 35.4 µM | 19.1 µM (inactive) | 22.4 µM (inactive) | 28.2 µM (inactive) | 46 µM (inactive) | 37.5 µM (inactive) | 42 µM (inactive) | 8.69 µM (inactive) | 22.5 µM (inactive) | 41.2 µM (inactive) | 27.5 µM (inactive) | 39.2 µM (inactive) | 28.7 µM (inactive) | 40.6 µM (inactive) | 38.6 µM (inactive)
CC(=O)/N=C1\N/C(=C\c2ccc(Cl)cc2)C(=O)N1/C=C1\C(=O)Oc2ccccc2C1=O | > 100 µM (inactive) | > 100 µM (inactive) | > 100 µM (inactive) | > 100 µM (inactive) | 13.3 µM (inactive) | 85.1 µM | > 100 µM (inactive) | 1.4 µM (inactive) | 67.3 µM (inactive) | > 100 µM (inactive) | 51.2 µM (inactive) | > 100 µM (inactive) | > 100 µM (inactive) | > 100 µM (inactive) | > 100 µM (inactive) | > 100 µM (inactive) | – | > 100 µM (inactive) | – | > 100 µM (inactive)
Fc1cc2nc3n(c2cc1F)C(c1c(F)cccc1F)SC3 (centres undefined) | 24.3 µM (inactive) | 61 µM (inactive) | 34.3 µM (inactive) | 87.5 µM (inactive) | – | 44 µM | 16.8 µM (inactive) | 50.1 µM (inactive) | – | 41.1 µM (inactive) | 35.3 µM (inactive) | 35.6 µM (inactive) | 27.1 µM (inactive) | 35.4 µM (inactive) | 42 µM (inactive) | 38.2 µM (inactive) | 45.4 µM (inactive) | 46.6 µM (inactive) | 37.8 µM (inactive) | 43 µM (inactive)
CC(C)C(/C=C/c1ccc(Cl)cc1)=N\NC(=S)NN | 20.5 µM (inactive) | 10.6 µM (inactive) | 22.4 µM (inactive) | 27.5 µM (inactive) | – | 5.98 µM | 4.99 µM (inactive) | 14.6 µM (inactive) | 3.55 µM (inactive) | 23.8 µM (inactive) | 10.7 µM (inactive) | 26.2 µM (inactive) | 4.15 µM (inactive) | 17.7 µM (inactive) | 12 µM (inactive) | 7.03 µM (inactive) | 8.87 µM (inactive) | 22.5 µM (inactive) | 17.9 µM (inactive) | 39.7 µM (inactive)
CC(C)NC(=O)OCc1c(COC(=O)NC(C)C)c(-c2ccc[n+](COC(=O)C(C)(C)C)c2)n2c1CCC2 | 40.7 µM (inactive) | 38.8 µM (inactive) | 27.6 µM (inactive) | > 91.4 µM (inactive) | > 100 µM (inactive) | > 100 µM | > 53.2 µM (inactive) | > 67.5 µM (inactive) | 99.8 µM (inactive) | > 100 µM (inactive) | > 100 µM (inactive) | > 100 µM (inactive) | 48.2 µM (inactive) | > 73.1 µM (inactive) | > 76.6 µM (inactive) | > 73.6 µM (inactive) | > 100 µM (inactive) | > 100 µM (inactive) | 64.7 µM (inactive) | > 100 µM (inactive)
O=C1/C(=c2\s/c(=C\c3ccccc3)c(=O)n2-c2ccccc2)SC(=S)N1c1ccccc1 | 45.8 µM (inactive) | 22.3 µM (inactive) | 0.131 µM (active) | 37.2 µM (inactive) | 35.6 µM (inactive) | > 100 µM | > 100 µM (inactive) | 34.4 µM (inactive) | 47.2 µM (inactive) | 71.8 µM (inactive) | 49.8 µM (inactive) | 94.6 µM (inactive) | 45.4 µM (inactive) | 28 µM (inactive) | 82.6 µM (inactive) | 32.3 µM (inactive) | 28.9 µM (inactive) | 72.9 µM (inactive) | – | 63.1 µM (inactive)
COc1ccc(/C(C)=N/OC(=O)c2c(-c3ccccc3Cl)noc2C)cc1CN1CCOCC1 | 24.5 µM (inactive) | 15.7 µM (inactive) | 20.7 µM (inactive) | 38.3 µM (inactive) | – | 26.5 µM | 17.1 µM (inactive) | 28.9 µM (inactive) | 28.2 µM (inactive) | 22.4 µM (inactive) | 20.8 µM (inactive) | 18.8 µM (inactive) | 24 µM (inactive) | 34.1 µM (inactive) | 29.3 µM (inactive) | 16.4 µM (inactive) | 43.1 µM (inactive) | 17.9 µM (inactive) | 3.75 µM (inactive) | 19.7 µM (inactive)
O=C(/C=C/c1ccc2c(c1)OCO2)CC(=O)C(=O)c1c[nH]c2ccccc12 | 41.9 µM (inactive) | 44.2 µM (inactive) | 39.5 µM (inactive) | 42.9 µM (inactive) | 38.5 µM (inactive) | 36.8 µM | 29.2 µM (inactive) | 29 µM (inactive) | 24.2 µM (inactive) | 33.4 µM (inactive) | 24.3 µM (inactive) | 27.9 µM (inactive) | 20.7 µM (inactive) | > 100 µM (inactive) | 37.1 µM (inactive) | > 100 µM (inactive) | 38.4 µM (inactive) | 51.8 µM (inactive) | 24.2 µM (inactive) | > 100 µM (inactive)
Cc1ccc([N+](=O)[O-])cc1S(=O)(=O)Nc1ccc(C2=NNC(c3ccccc3O)C2)cc1 (centres undefined) | – | 23.6 µM (inactive) | 25.1 µM (inactive) | 38.7 µM (inactive) | 20.9 µM (inactive) | 21.2 µM | 12.1 µM (inactive) | 43.7 µM (inactive) | 24.5 µM (inactive) | 21.6 µM (inactive) | 22.1 µM (inactive) | 28.6 µM (inactive) | 24.1 µM (inactive) | 24.8 µM (inactive) | 56 µM (inactive) | 25.2 µM (inactive) | 0.416 µM (active) | 25.9 µM (inactive) | 17.9 µM (inactive) | 26.9 µM (inactive)
O=C(CN1CCCCC1)c1ccc2[nH]c(=O)oc2c1 | > 100 µM (inactive) | > 100 µM (inactive) | > 100 µM (inactive) | > 100 µM (inactive) | > 100 µM (inactive) | > 100 µM | > 100 µM (inactive) | > 100 µM (inactive) | > 100 µM (inactive) | > 100 µM (inactive) | > 100 µM (inactive) | > 100 µM (inactive) | > 100 µM (inactive) | > 100 µM (inactive) | > 100 µM (inactive) | > 100 µM (inactive) | > 100 µM (inactive) | > 100 µM (inactive) | – | > 100 µM (inactive)
COC(=O)[C@@H]1C=CCN1S(=O)(=O)c1ccc(C)cc1 | 32.9 µM (inactive) | > 100 µM (inactive) | 20.2 µM (inactive) | > 100 µM (inactive) | > 100 µM (inactive) | 37.5 µM | 24.2 µM (inactive) | > 100 µM (inactive) | 31.9 µM (inactive) | > 100 µM (inactive) | 13.2 µM (inactive) | 29.2 µM (inactive) | 37.4 µM (inactive) | > 100 µM (inactive) | > 100 µM (inactive) | > 100 µM (inactive) | > 100 µM (inactive) | > 100 µM (inactive) | > 100 µM (inactive) | 93.1 µM (inactive)
C=C1C(=O)O[C@H]2C/C(C)=C/CC/C(C)=C/CC[C@@](C)(O)[C@@H](I)C[C@@H]12 | 3 µM (inactive) | 8.77 µM (inactive) | 8.93 µM (inactive) | 9.44 µM (inactive) | 7.14 µM (inactive) | 6.04 µM | 2.58 µM (inactive) | 5.79 µM (inactive) | 2.94 µM (inactive) | 5.65 µM (inactive) | 4.6 µM (inactive) | 3.33 µM (inactive) | 2.37 µM (inactive) | 6.3 µM (inactive) | 0.791 µM (active) | 11.7 µM (inactive) | 11.5 µM (inactive) | 12.4 µM (inactive) | 11.7 µM (inactive) | 13.6 µM (inactive)
Clc1ccc(Cc2nc3cc(CCN4CCN(c5ccccc5)CC4)ccc3[nH]2)cc1 | 6.87 µM (inactive) | 19.5 µM (inactive) | 14.4 µM (inactive) | 17.4 µM (inactive) | 22 µM (inactive) | 15 µM | 12.6 µM (inactive) | 20.3 µM (inactive) | 5.93 µM (inactive) | 11.3 µM (inactive) | 12.9 µM (inactive) | 15.3 µM (inactive) | 6.62 µM (inactive) | 19.1 µM (inactive) | 17 µM (inactive) | 15 µM (inactive) | 12.8 µM (inactive) | 5.42 µM (inactive) | 8.07 µM (inactive) | 19.1 µM (inactive)
COC1=C2CC(C)CC(OC)C(OC(=O)CN)[C@H](C)/C=C(\C)C(OC(N)=O)C(OC)/C=C\C=C(/C)C(=O)NC(=CC1=O)C2=O (some centres undefined) | 0.429 µM (active) | 0.446 µM (active) | 1.46 µM (inactive) | 1.45 µM (inactive) | 0.838 µM (active) | 0.899 µM | 0.123 µM (active) | 3.79 µM (inactive) | – | 1.24 µM (inactive) | 0.373 µM (active) | 0.443 µM (active) | 0.344 µM (active) | 9.62 µM (inactive) | 0.94 µM (active) | 3.84 µM (inactive) | 0.519 µM (active) | 0.359 µM (active) | 0.716 µM (active) | 0.161 µM (active)
